Values quoted from earlier work as cited in publication PMC12141164, “Phase-1 study of vamotinib (PF-114), a 3rd generation BCR::ABL1 tyrosine kinase-inhibitor, in chronic myeloid leukaemia” (Annals of Hematology, 2025).
Where two headings read alike, the source gives them in different places.

Key:
Details in all cases: cited from earlier work
EPHA7 = test system: EPHA7
ZAK = test system: ZAK
VEGFR2 = test system: VEGFR2
EPHA6 = test system: EPHA6
TIE2 = test system: TIE2
TAK1 = test system: TAK1
PDGFRa = test system: PDGFRa
[1] = parameters: method as in PMID 35982483

Cc1ccc(C(=O)Nc2ccc(CN3CCN(C)CC3)c(C(F)(F)F)c2)cc1C#Cc1cnc2[nH]ncc2c1 [olverembatinib]
inhibition of EPHA7 (EPHA7): not
inhibition of ZAK (ZAK): potent inhibitor
inhibition of VEGFR2 (VEGFR2): not
inhibition of EPHA6 (EPHA6): not
inhibition of TIE2 (TIE2): potent inhibitor
inhibition of TAK1 (TAK1): potent inhibitor
inhibition of PDGFRa (PDGFRa; off-target kinases): among the off-target kinases
most common non-hematologic adverse reaction ([1]; clinical evaluation): skin pigmentation
drug related cardiovascular adverse events ([1]; recent clinical studies): some drug related cardiovascular adverse events, including vascular occlusions

Cc1ccc(C(=O)Nc2ccc(CN3CCN(C)CC3)c(C(F)(F)F)c2)cc1C#Cc1cnc2cccnn12 [ponatinib]
inhibition of EPHA7 (EPHA7; kinase inhibition profiles): inhibition
inhibition of ZAK (ZAK; kinase inhibition profiles): inhibition
inhibition of VEGFR2 (VEGFR2; kinase inhibition profiles): inhibition
inhibition of EPHA6 (EPHA6; kinase inhibition profiles): inhibition
inhibition of TIE2 (TIE2; kinase inhibition profiles): inhibition
inhibition of TAK1 (TAK1; kinase inhibition profiles): inhibition
inhibition of PDGFRa (PDGFRa; kinase inhibition profiles): potently inhibited
